Columns and labels:
[1] = target: T1, EFHA1 (which binds to Tyk2(C) itself) (Homo sapiens, UniProt Q8IYU8); test: Tyk2(C) kinase substrate sensor luciferase reporter assay, EFHA1 control interaction; format: cell-based; details: HEK293-T cells, pMet7-HA-Tyk2(C)-p53(N)+pMG1-EFHA1; 0-3333 nM; FIG. 4
T1 construct: expressed in transfected cells; host or cells: HEK293-T
T1 sequence (Q8IYU8 1-434): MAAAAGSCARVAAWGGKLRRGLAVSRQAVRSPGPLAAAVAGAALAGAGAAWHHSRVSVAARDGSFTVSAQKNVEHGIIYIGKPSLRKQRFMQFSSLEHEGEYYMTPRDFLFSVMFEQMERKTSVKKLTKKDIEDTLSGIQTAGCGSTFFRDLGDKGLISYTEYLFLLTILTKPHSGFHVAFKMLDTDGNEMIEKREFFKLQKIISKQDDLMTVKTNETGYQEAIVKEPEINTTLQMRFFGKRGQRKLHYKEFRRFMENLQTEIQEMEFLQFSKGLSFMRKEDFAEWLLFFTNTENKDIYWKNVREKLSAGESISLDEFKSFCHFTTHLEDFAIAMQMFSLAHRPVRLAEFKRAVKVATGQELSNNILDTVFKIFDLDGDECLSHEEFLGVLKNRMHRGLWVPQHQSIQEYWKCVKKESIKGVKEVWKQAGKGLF

Tyk2(R1027A) = test: Imidazole-inducible version of the assay, Tyk2(R1027A)-RTp66 fusion, luciferase reporter; format: cell-based, human; details: HEK293-T cells, 0.5-50 mM imidazole
Description: (§1) Transfections were carried out using a standard calcium phosphate method. HEK293-T cells were seeded in black tissue-culture treated 96-well plates at 10,000 cells/well in 100 μl culture medium (DMEM supplemented with 10% FCS). Twenty-four hours later, plasmid DNA mixes were prepared that contained plasmids encoding fusion proteins with the first and second interacting proteins and reporter plasmids. The DNA was supplemented with 10 μl 2.5M CaCl2) and double distilled water to a final volume of 100 μl. This mixture was added dropwise to 100 μl 2×HeBS buffer (280 mM NaCl, 1.5 mM Na2HPO4, 50 mM Hepes; pH 7.05) while vigorously vortexing. After incubation at room temperature for 15 minutes to allow DNA precipitates to form, the solution was added to the cells at […] Cells were incubated at 37° C., 8% CO2. Forty-eight hours after transfection, luciferase activity was measured using the Luciferase Assay System kit (Promega) on a TopCount luminometer (Perkin-Elmer). Each transfection was done in triplicate and the average of the luciferase activity readings was used in the calculations.
(§2) A Nutlin-3 (Sigma) stock solution of 20 mM in DMSO was diluted in culture medium and added to the cells 24 hours after transfection. Imidazole (Sigma) diluted in culture medium was added to the cells 24 hours after transfection. […]

Tyk2(C) = test: Imidazole treatment of the constitutive Tyk2(C)-RTp66 fusion assay, luciferase reporter; format: cell-based, human; details: HEK293-T cells, pMet7-HA-Tyk2(C)-RTp66; 0.5-50 mM imidazole
Description: as §1, §2

Structure (SMILES)	signal corresponding to the interaction with EFHA1 [1]	background signal, Tyk2 fusion construct with unfused gp130 fragment (pMG1) (Tyk2(R1027A); Tyk2 fusion construct + pMG1)	maximal imidazole-dependent induction of the signal (interaction between HIV RTp66 and RTp51) compared to untreated cells (Tyk2(R1027A); pMet7-HA-Tyk2(R1027A)-RTp66+pMG2-RTp51, added 24 hours after transfection)	imidazole regulation of the signal in cells transfected with the Tyk2(C) fusion (Tyk2(C))
COc1ccc(C2=N[C@@H](c3ccc(Cl)cc3)[C@@H](c3ccc(Cl)cc3)N2C(=O)N2CCNC(=O)C2)c(OC(C)C)c1 [Nutlin-3]	unaffected	–	–	–
c1c[nH]cn1 [imidazole]	–	unaffected	36 fold	did not exhibit any imidazole regulation
